US20170038384A1, “TREATMENT OF TUMORS EXPRESSING MUTANT P53” (SLOAN-KETTERING INSTITUTE FOR CANCER RESEARCH, priority 2014, published 2017)

How the values were obtained:
KPC cells [1] = assay: Lung colonization assay after tail vein injection of drug-pretreated KPC cells; type: in vivo, mouse
Text: FIG. 5E (left panel) are representative merged brightfield/GFP imaged of whole lung as well as H&E stains of representative sections of pulmonary lobes after tail vein injection of crenolanib- or DMSO-treated KPC cells into mice. FIG. 5E (right panel) is a graph of quantification of total number of lung metastatic nodules in individual mouse (at least six mice per each group). Data are represented as mean±SD.
FIG. 6B (left panel) are representative merged brightfield/GFP images of whole lung. FIG. 6B (middle panel) are H&E stainings of representative sections of pulmonary lobes. […] FIG. 6B (right panel) is a graph of quantification of total number of lung metastatic nodules in individual mouse (at least six mice per each group. Data are represented as mean±SD.
(§1) All animal experiments were performed in accordance with a protocol approved by the Memorial Sloan-Kettering Institutional Animal Care and Use Committee. For colonization studies, KPC cells (1×10^5) were resuspended in 200 μl PBS and injected intravenously into the tail vein of 8 week-old female athymic nude mice. Lungs were harvested 7 days post injection and analyzed for colonization by GFP positivity (Nikon SMZ1500) and histology.

[2] = system: human A2.1 pancreatic cancer cells; assay: MTS assay of A2.1 cell viability; type: cell-based
Method: (§2) FIG. 5B is a graph of MTS assay (E490) of murine KPC and human A2.1 cells treated with crenolanib with various doses for 72 hours. Normalized values are expressed as means±SD form quadruple replicates.
(§3) All cell lines were maintained in DMEM+10% FBS, at 37° C. in 5% CO2. Stable cell lines expressing shRNAs were generated by retroviral mediated gene transfer. Briefly, Phoenix or Ampho packaging cells (for murine or human cell lines, respectively) were transfected by the calcium phosphate method with vectors expressing NF-YA, NF-YB, p53, p73, PDGFRa, PDGFRb or Renilla-control shRNAs, and the generated viruses were harvested to infect KPC, KPflC, or a series of human pancreatic, breast, lung and colon cancer cell lines. Infected cells were selected with puromycin and experiments were carried out on derived cell populations. To generate cells stably expressing mutant p53, p73 or PDGFRb, KPflC cells were infected with MSCV-p53-R175H, -R273H, PDGFRb or pcDNA3-HA-p73α and selected in puromycin and G418 respectively to yield stable pools.

A2.1 cells = assay: Three-dimensional collagen invasion assay, A2.1 cells; type: cell-based, human; conditions: 300 nM
Method: Images were analyzed using Imaris software.

KPflC cells = assay: Lung colonization assay after tail vein injection of drug-pretreated KPflC cells; type: in vivo, mouse; conditions: same concentration as for KPC cells
Method: FIG. 12G (left panel) depicts representative merged brightfield/GFP images of pulmonary lobes after tail vein injection of crenolanib- or DMSO-treated KPflC cells into mice. FIG. 12G (middle panel) depicts H&E stainings of representative sections of pulmonary lobes. FIG. 12G (right panel) is a graph of quantification of total number of lung metastatic nodules in individual mouse (at least six mice per each group). Data are represented as mean±SD.
as §1

KPC cells [3] = assay: Three-dimensional collagen invasion assay, KPC cells
Method: FIG. 5D (left panel) is a graph of quantification of invasion of murine KPC and human A2.1 treated with either DMSO or crenolanib at 300 nM. Values are means±SD of 9 replicates from one representative experiment.
In brief, 24-well transwell inserts (Greiner bio-one) were lined with collagen type 1 (BD Biosciences), and cells were seeded on the inverted inserts. The lower chambers were filled with medium containing 0.5% FBS and upper chambers containing the collagen matrix were filled with medium containing 20% FBS and the chemoattractant HGF.
Invasion assay inserts were fixed using 4% formaldehyde and stained using DAPI and Alexa568 phalloidin (Invitrogen) before confocal microscopy (Perkin Elmer Spinning Disk) was conducted. Images were analyzed using Imaris software.

[4] = system: murine KPC pancreatic cancer cells; assay: MTS assay of KPC cell viability/proliferation; type: cell-based, mouse
Method: as §2
Normalized values are expressed as means±SD form quadruple replicates.
as §3

PDGFRb [5] = molecular target: T1, PDGFRb (Homo sapiens, UniProt P09619); assay: Western blotting for phospho-PDGFRb in A2.1 cells; type: cell-based; conditions: 0.3 μM
T1 construct: Western blotting for phospho-PDGFRb, PDGFRb, and Actin in human A2.1 cells; endogenous in cells; host or cells: human A2.1 pancreatic cancer cell line (mutant p53 155P)
Text: FIG. 12D depicts Western blotting for phospho-PDGFRb, PDGFRb, and Actin in human A2.1 cells after treatment with DMSO or crenolanib at varying doses.

PDGFRb [6] = molecular target: T2, PDGFRb (Mus musculus, UniProt P05622); assay: PDGFRb phosphorylation in KPC cells (immunoprecipitation, phospho-Tyrosine western blot); type: cell-based
T2 construct: endogenous in cells; host or cells: murine KPC pancreatic cancer cell line (Kras G12D, p53 R172H, Pdx1-Cre)
Method: FIG. 5C depicts immunoprecipitation of PDGFRb from KPC cells starved for 12 hours, treated with either increasing doses of crenolanib or DMSO for 4 hours and subsequently stimulated with 50 ng/ml of PDGF-BB recombinant protein. Protein levels of PDGFRb, phospho-Tyrosine and Tubulin were determined by western blotting.
Protein levels of PDGFRb, phospho-Tyrosine and Tubulin were determined by western blotting.
FIG. 12E depicts immunoprecipitation of PDGFRb from KPC cells treated with DMSO or crenolanib (300 nM) for different time periods. The input protein levels for PDGFRb, phospho-Tyrosine, and Actin and those present in immunoprecipitates for phospho-Tyrosine were determined by western blotting.
To measure levels of endogenously phosphorylated PDGFRb, KPC cells were treated with the drug as described and harvested in phospho-lysis buffer (50 mM Tris pH 7.5, 1% Tween-20, 200 mM NaCl, 0.2% NP-40, phosphatase inhibitors [2.5 mM Sodium pyrophosphate, 1 mM β-Glycerophosphate, 1 mM Na3VO4], and protease inhibitors [Roche]).

KPC cells [7] = assay: Propidium Iodide staining of KPC cells treated overnight; type: cell-based, mouse; conditions: KPC cells pretreated overnight
PDGFRb [8] = molecular target: T2, PDGFRb; assay: phospho-PDGFRb in pancreatic tumors of treated KPC mice (immunofluorescence); type: in vivo; conditions: 50 mg/kg oral gavage twice daily
Method: DAPI, blue; CK8, red and p-PDGFRb, green. […] 15 images were analyzed per tumor (n=7). Tissues were fixed overnight in formalin, embedded in paraffin, and cut into 5-μm thick sections. Sections were subjected to hematoxylin and eosin staining, and immunohistochemical and immunofluorescent staining following standard protocols. The following primary antibodies were used: mouse anti-GFP (Cell Signaling), rabbit anti-p-PDGFR-β ([MUT]) (Santa Cruz Biotechnology) and rat anti-CK8 (DSHB). […] Images were acquired using a Zeiss Axio Imager D1 scope.

KPC mice = assay: Treatment of KPC mice (PDAC mouse model): tumor, survival and metastasis; type: in vivo
Text: (§4) FIG. 6D is a graph of quantification of the number of mice with metastatic disease at the time of death. Values are percentages of the total number of mice in each cohort. Colored columns represent mice with metastases (METS) and white columns represent disease-free (DF) animals.
as §4, with “FIG. 6E is a” for “FIG. 6D is a”, “mice with lung, lymph nodes or liver metastatic disease” for “mice with metastatic disease”
Strains were maintained on mixed background. […] Organs and tumors were removed and fixed in 10% buffered formalin and tumor and metastatic burden was assessed by gross pathology and histology.

[9] = 50 mg/kg oral gavage twice daily

T2 sequence (P05622 32-1098): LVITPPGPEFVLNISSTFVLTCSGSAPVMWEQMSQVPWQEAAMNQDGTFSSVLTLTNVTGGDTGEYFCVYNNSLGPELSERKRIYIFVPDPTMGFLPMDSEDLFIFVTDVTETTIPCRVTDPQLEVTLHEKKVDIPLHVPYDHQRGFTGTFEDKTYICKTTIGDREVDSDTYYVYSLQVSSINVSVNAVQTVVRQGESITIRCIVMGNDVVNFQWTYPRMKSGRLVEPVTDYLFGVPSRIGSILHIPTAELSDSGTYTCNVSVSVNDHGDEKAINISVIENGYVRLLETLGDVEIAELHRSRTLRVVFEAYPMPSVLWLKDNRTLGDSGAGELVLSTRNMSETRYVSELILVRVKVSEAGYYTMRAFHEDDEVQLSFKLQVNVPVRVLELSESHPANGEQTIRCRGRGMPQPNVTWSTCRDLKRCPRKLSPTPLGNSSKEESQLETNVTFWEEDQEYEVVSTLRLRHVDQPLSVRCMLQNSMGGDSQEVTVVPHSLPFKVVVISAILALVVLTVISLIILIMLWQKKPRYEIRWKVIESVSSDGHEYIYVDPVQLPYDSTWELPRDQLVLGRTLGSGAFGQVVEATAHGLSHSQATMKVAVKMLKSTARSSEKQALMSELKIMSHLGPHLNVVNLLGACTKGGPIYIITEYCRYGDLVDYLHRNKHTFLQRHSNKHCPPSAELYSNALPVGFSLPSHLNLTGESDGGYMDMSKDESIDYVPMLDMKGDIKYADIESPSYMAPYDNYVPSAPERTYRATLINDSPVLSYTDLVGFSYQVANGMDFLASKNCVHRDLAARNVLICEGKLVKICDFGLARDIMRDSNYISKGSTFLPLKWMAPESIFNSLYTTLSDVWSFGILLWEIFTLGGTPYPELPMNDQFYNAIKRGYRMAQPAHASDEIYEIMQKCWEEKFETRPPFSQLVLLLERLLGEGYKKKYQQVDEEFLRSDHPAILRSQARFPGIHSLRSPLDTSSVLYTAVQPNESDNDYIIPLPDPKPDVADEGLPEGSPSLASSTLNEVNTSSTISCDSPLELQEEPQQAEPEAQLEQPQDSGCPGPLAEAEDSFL
T1 sequence (P09619 33-1106): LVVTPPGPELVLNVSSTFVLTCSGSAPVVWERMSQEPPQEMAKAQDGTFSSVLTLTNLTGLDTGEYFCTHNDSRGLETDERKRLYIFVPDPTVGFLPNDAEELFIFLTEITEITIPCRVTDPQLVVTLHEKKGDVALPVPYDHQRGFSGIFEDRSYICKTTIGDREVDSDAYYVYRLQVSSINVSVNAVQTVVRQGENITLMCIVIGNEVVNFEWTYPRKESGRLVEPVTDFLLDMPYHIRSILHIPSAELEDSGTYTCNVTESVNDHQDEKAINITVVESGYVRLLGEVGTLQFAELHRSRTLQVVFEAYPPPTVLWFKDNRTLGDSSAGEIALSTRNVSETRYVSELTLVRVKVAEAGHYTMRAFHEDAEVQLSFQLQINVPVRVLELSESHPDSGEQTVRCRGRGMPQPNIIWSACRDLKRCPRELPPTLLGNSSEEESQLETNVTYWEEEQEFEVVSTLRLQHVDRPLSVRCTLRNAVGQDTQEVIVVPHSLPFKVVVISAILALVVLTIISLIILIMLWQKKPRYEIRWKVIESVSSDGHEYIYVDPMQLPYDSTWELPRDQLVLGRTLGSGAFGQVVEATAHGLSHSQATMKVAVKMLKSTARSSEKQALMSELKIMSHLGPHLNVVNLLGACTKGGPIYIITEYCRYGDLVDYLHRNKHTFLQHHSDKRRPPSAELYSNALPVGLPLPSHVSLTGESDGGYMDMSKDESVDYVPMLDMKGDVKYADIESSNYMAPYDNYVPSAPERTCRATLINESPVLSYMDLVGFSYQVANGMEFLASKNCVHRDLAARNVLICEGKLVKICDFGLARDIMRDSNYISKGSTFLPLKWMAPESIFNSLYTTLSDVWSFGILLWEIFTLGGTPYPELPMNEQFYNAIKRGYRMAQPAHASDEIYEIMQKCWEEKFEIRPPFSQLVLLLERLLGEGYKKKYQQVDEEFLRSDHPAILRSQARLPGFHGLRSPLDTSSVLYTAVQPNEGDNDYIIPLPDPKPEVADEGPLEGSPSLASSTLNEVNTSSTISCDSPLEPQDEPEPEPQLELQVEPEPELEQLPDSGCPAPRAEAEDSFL

IC50 ([2]; Pancreatic cancer cell, human A2.1 cells, MTS assay, 72 hours, read-out: IC50, inhibiting the viability)	IC50 ([4]; Mus musculus, Pancreatic cancer cell, murine KPC cells, MTS assay, 72 hours, read-out: IC50, inhibiting the viability)	inhibition of PDGFRb activity, as measured by phospho-PDGFRb (PDGFRb [5])	inhibition of PDGFRb activity, as measured by phospho-PDGFRb (PDGFRb [6]; 0.3 μM)	time of drug treatment to strong target inhibition (PDGFRb [6]; time course, 300 nM)	SMILES	lung nodules compared to controls pre-treated with DMSO (KPC cells [1]; KPC cells pretreated overnight, injected intravenously)	toxicity ([2]; A2.1 cells, 0.3 μM)	invasion relative to cells treated with DMSO (A2.1 cells)	metastatic potential in lung colonization assay (KPflC cells)	invasion relative to cells treated with DMSO (KPC cells [3]; 300 nM)	toxicity ([4]; KPC cells, 0.3 μM)	viability of the injected cell population (KPC cells [7])	potential to colonize the lungs of recipient athymic mice (KPC cells [1]; pre-treatment of KPC cells)	invasive potential in vitro (KPC cells [3]; 3 μM vs DMSO)	levels of phospho-PDGFRb in the tumor cells of primary tumors (PDGFRb [8])	PDGFRb tyrosine phosphorylation (PDGFRb [6]; 3 uM)	anti-metastatic effect across organs (liver, lymph nodes and lung) (KPC mice; [9])	occurrence of metastasis (KPC mice; [9])	overall survival (KPC mice; 50 mg/kg oral gavage twice daily from 8 weeks of age)	incidence of metastasis (KPC mice; 50 mg/kg oral gavage twice daily, GFP fluorescence and histopathology, 92% in vehicle-treated animals)
8.5 µM	13.1 µM	Strong inhibition	Strong inhibition	≤ 10 min	CC1(COc2ccc3c(c2)ncn3-c2ccc3cccc(N4CCC(N)CC4)c3n2)COC1 [crenolanib, Crenolanib]	significantly fewer lung nodules	no toxicity was observed	substantially reduced invasion	did not reduce the metastatic potential	substantially reduced invasion	no toxicity was observed	no effect on the viability								
					Cc1ccc(NC(=O)c2ccc(CN3CCN(C)CC3)cc2)cc1Nc1nccc(-c2cccnc2)n1 [imatinib]								decreased their potential to colonize the lungs	significantly reduced the invasive potential	reduced levels of phospho-PDGFRb	strongly reduced PDGFRb tyrosine phosphorylation	anti-metastatic effect was observed	striking reduction in the occurrence of metastasis	no impact	15%
